# Columns and labels:
# [1] = biological target: Cdc7 (Homo sapiens, UniProt O00311); assay: Cdc7 biochemical assay, ADPGlo assay format
# Procedure: The biochemical activity of compounds was determined by incubation with specific enzymes and substrate, followed by quantification of the ADP product. Compounds were 4-fold serially diluted from 10 to 0.0006 uM; in the case of the pre-incubation step, the enzyme is added to the inhibitor solution and the mixture is left to incubate for 30 minutes at room temperature (r.t.). The reaction started with the addition of the substrate and the ATP, when the enzyme was already present in the preincubation step, or substrate, ATP and enzyme when the preincubation step was not present. The concentrations of ATP, substrate and reaction buffer are described above. The assays were run in a robotized format on 384-well plates. […] At the end of the incubation time, an equal volume of ADPGlo Reagent 1 (Promega) was added to stop the reaction and to remove all unreacted ATP. After 60 minutes, an equal volume of ADPGlo Reagent 2 (Promega) was added to convert ADP in ATP and then ATP in light by luciferase reaction.
# y=bottom+(top−bottom)/(1+10^((log IC50−x)*slope))
# where x is the logarithm of the inhibitor concentration, y is the response; y starts at bottom and goes to top with a sigmoid shape.
# [2] = biological target: T1, aldehyde oxidases (human liver cytosol) (Homo sapiens, UniProt Q06278); format: in vitro ADME; settings: human liver cytosol 1 mg/mL, 1 μM compound; for HLC % remaining (1 h incub.): 60 min incubation; for HLC % remaining (1 h incub.) / HLC T½ min: pH 7.4, 37° C.; for IntCl (Intrinsic Clearance): half-life approach
# T1 construct: added to human liver cytosol (1 mg/mL protein content); from tissue; host or cells: human liver cytosol
# Procedure: The aldehyde oxidases involvement in the metabolism of the test item was determined by comparison of the intrinsic clearance values in the presence and absence of aldehyde oxidases inhibitor hydralazine hydrochloride. The purpose of the study was to evaluate the in-vitro intrinsic clearance, the metabolic stability towards aldehyde oxidases (AO) activity and the metabolism of the test item in human liver cytosol. The intrinsic clearance was determined using the half-life approach, by measuring the substrate disappearance along 60 minutes incubation with human liver cytosol. Incubations were performed at the concentration of 1 μM. […] HPLC-MS/MS was used for the detection of the compound left over during the incubation. For intrinsic clearance determination samples were analyzed by high performance liquid chromatography (HPLC) on-line with mass spectrometry (MS) equipment. For the determination of aldehyde oxidases activity (i.e. positive control) of cytosol, phthalazine was incubated with human liver cytosol in presence and absence of the aldehyde oxidases inhibitor. On the day of the incubation, the compound was dissolved in DMSO at the concentration of 10 mM. Aliquots of this solution were added to the test system to a final concentration of […]. The percentage of DMSO in the final incubates was […]. Aliquots of the test item were added to human liver cytosol (1 mg/mL protein content) in Dulbecco's buffer, pH 7.4 at 37° C., to reach final concentration of 1 μM. Incubations were performed in a 48-well plate, under shaking. At 0, 5, 10, 20, 30 and 60 minutes incubation, 50 μL aliquots of the incubate were sampled, poured in 80 μL of ice-cold acetonitrile and 20 μL of 1 μM warfarin in acetonitrile (injection control) and centrifuged at 2500 rpm for 20 minutes. The supernatant was immediately analysed by LC-MS/MS.
# The test item was incubated in parallel, in duplicate, at the concentration of 1 μM in Dulbecco's buffer, pH 7.4 for 60 min at 37° C. in the presence of 10 μM hydralazine hydrochloride (aldehyde oxidases inhibitor).
# The chemical stability of the test item was checked in parallel by incubating the test item in single at the concentration of 1 μM in Dulbecco's buffer, pH 7.4 for 60 min at 37° C. (negative control).
# The intrinsic clearance (CLint) was calculated using the half-life approach. Half-life and CLint were determined from the concentration (area counts) remaining at the different sampling points using the LC-MS/MS method. By plotting the natural logarithmic area of the compound remaining against the time, the slope was calculated by linear regression analysis and converted into the half-life (t½) and CLint expressed as μL/min/mg protein according to the following formulae: […]
# T1 sequence (Q06278 whole entry): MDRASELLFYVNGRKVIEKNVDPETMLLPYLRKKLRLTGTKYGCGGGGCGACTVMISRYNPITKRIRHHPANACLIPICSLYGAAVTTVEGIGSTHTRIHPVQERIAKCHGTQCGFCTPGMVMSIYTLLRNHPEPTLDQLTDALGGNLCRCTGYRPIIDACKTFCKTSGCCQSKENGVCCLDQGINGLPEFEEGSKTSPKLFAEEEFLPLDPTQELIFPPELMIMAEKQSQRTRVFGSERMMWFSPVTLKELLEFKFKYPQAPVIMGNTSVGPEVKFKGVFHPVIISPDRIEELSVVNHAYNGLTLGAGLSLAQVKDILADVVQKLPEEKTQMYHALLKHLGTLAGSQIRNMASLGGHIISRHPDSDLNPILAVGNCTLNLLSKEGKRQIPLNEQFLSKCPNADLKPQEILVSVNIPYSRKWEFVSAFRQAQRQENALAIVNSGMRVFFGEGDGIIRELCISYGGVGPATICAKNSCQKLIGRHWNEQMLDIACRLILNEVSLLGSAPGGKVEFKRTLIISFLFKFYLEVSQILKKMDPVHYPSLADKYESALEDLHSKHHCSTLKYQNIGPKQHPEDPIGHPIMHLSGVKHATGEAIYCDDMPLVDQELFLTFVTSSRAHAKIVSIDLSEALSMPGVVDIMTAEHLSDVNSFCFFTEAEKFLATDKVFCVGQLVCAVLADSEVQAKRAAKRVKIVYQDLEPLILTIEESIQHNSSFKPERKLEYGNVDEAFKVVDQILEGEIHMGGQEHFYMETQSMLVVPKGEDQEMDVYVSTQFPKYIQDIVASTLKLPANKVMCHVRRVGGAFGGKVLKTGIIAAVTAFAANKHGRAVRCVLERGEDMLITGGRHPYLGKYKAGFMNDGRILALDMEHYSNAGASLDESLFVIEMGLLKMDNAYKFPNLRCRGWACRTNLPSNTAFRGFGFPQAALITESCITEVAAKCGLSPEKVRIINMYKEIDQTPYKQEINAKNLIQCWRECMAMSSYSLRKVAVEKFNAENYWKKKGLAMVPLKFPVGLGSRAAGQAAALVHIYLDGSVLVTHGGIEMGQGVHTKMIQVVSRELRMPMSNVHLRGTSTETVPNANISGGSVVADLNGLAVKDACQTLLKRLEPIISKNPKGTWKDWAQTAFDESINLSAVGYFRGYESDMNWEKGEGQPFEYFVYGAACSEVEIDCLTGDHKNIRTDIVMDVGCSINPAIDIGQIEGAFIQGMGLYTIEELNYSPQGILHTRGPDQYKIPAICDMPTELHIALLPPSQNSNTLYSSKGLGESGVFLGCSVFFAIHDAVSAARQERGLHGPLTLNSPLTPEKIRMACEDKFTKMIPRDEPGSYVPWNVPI
# Cdc7, sequence (O00311 whole entry): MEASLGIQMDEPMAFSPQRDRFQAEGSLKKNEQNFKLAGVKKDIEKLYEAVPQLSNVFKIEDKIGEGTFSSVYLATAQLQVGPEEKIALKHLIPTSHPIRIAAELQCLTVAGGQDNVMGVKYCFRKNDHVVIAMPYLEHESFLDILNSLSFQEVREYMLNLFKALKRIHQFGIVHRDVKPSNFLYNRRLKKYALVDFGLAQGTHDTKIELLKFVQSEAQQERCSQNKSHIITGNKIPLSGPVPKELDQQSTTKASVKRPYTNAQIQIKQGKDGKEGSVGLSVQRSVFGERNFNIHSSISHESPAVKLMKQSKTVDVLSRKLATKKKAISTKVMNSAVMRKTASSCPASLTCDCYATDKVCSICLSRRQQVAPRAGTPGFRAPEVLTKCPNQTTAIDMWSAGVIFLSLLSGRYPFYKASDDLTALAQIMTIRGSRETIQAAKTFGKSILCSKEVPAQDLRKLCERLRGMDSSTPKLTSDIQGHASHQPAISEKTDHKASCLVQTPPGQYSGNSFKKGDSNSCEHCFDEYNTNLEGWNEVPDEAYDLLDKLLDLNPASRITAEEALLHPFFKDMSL
# Cdc7, sequence (Q9UBU7 whole entry partner): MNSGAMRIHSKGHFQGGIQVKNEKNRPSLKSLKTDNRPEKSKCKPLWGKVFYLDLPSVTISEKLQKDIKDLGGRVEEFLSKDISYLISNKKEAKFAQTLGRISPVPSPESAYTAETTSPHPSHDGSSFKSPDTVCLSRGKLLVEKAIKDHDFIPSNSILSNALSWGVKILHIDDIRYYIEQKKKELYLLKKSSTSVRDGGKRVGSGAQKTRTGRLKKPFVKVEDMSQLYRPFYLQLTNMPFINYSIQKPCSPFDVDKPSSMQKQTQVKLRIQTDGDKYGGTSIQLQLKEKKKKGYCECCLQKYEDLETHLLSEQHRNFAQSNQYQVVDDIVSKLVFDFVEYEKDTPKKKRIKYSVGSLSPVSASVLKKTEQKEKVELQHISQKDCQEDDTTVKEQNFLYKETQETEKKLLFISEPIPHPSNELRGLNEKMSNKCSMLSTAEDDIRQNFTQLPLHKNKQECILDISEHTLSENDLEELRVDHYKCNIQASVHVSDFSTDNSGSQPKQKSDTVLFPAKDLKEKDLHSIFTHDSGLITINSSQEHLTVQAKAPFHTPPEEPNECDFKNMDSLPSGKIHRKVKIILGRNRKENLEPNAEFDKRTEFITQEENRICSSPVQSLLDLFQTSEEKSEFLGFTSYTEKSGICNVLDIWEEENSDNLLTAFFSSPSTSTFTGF
Structure (SMILES),IC50 [1] [nM],HLC % remaining (1 h incub.) [2] [%],IntCl (Intrinsic Clearance) [2] [μL/min/mg protein],HLC T½ min [2] [h]
"NC(=O)c1cc(-c2ccnc3[nH]ccc23)[nH]c1-c1cccc(F)c1Cl [comp 13, 2-(2-chloro-3-fluorophenyl)-5-(1H-pyrrolo[2,3-b]pyridin-4-yl)-1H-pyrrole-3-carboxamide]",1,100,2.9,3.98
"Cc1ccc(-c2[nH]c(-c3ccnc4[nH]ccc34)cc2C(N)=O)c(C(F)(F)F)c1 [comp 8, 2-[4-methyl-2-(trifluoromethyl)phenyl]-5-(1H-pyrrolo[2,3-b]pyridin-4-yl)-1H-pyrrole-3-carboxamide]",3,85,2.9,3.98
"NC(=O)c1cc(-c2ccnc3[nH]ccc23)[nH]c1-c1cccc(Cl)c1F [comp 1, 2-(3-chloro-2-fluorophenyl)-5-(1H-pyrrolo[2,3-b]pyridin-4-yl)-1H-pyrrole-3-carboxamide]",4,100,2.9,3.98
"COc1cccc(-c2[nH]c(-c3ccnc4[nH]ccc34)cc2C(N)=O)c1F [comp 12, 2-(2-fluoro-3-methoxyphenyl)-5-(1H-pyrrolo[2,3-b]pyridin-4-yl)-1H-pyrrole-3-carboxamide]",4,97,2.9,3.98
"Cc1c(-c2[nH]c(-c3ccnc4[nH]ccc34)cc2C(N)=O)cccc1C(F)(F)F [comp 15, 2-[2-methyl-3-(trifluoromethyl)phenyl]-5-(1H-pyrrolo[2,3-b]pyridin-4-yl)-1H-pyrrole-3-carboxamide]",6,100,2.9,3.98
"NC(=O)c1cc(-c2ccnc3[nH]ccc23)[nH]c1-c1ccc(F)cc1Cl [comp 3, 2-(2-chloro-4-fluorophenyl)-5-(1H-pyrrolo[2,3-b]pyridin-4-yl)-1H-pyrrole-3-carboxamide]",1,97,2.9,3.98
"NC(=O)c1cc(-c2ccnc3[nH]ccc23)[nH]c1-c1ccc(Cl)cc1F [comp 2, 2-(4-chloro-2-fluorophenyl)-5-(1H-pyrrolo[2,3-b]pyridin-4-yl)-1H-pyrrole-3-carboxamide]",3,98,2.9,3.98
